Data: patent publication US9353082B2, “Pharmaceutical compounds” (BIAL—PORTELA & CA, S.A., priority 2008, dated 2016)

molecular target: T1, FAAH (Rattus norvegicus, UniProt P97612); experiment: In vitro FAAH activity in rat brain membranes, 3H-AEA substrate, % of control; type: biochemical, Wistar rats; settings: 100 nM test compound, low value = strong inhibitor
T1 construct: Frozen brains (without cerebellum) from Wistar rats were used; from tissue; host or cells: Wistar rat brain (without cerebellum), washed membrane pellets
T1 sequence (P97612 1-579): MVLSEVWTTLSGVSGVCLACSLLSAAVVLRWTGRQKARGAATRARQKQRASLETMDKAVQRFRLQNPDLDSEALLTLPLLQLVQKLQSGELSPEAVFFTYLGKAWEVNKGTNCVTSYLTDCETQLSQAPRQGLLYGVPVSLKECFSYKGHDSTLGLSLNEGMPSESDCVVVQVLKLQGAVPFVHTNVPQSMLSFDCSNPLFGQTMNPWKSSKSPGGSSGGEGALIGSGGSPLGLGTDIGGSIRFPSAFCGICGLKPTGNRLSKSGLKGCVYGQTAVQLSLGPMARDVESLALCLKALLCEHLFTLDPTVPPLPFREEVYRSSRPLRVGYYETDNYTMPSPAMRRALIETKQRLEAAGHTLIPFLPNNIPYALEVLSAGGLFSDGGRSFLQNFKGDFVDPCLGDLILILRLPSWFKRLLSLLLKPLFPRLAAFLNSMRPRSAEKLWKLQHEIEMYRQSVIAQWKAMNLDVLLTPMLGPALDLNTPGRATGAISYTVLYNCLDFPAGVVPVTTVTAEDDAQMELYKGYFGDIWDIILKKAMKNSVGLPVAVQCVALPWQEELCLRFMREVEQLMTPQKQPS
Procedure: 3. Biological Efficacy of Compounds of the Invention The in vitro test was performed according to the protocol described below. The controls for both in vitro and in vivo were the reaction mix minus the test compounds. Therefore, a low value in Table 1 below for the test compounds indicates a strong inhibitor.
The in vitro pharmaceutical FAAH activity was determined according to the following method:
Frozen brains (without cerebellum) from Wistar rats were used, and each brain was homogenized in 15 ml 1 mM MgCL2, […] HEPES pH 7.0 with Potter Elvejhem (8 strokes at 500 rpm). Homogenates were centrifuged for 20 min at 36000 g at 4° C. (Beckman, 70Ti rotor). Pellets were resuspended in 15 ml of the same buffer and centrifuged under the same conditions. Pellets were resuspended in 15 ml of the same buffer and incubated for 15 min at 37° C. after which they were centrifuged for 20 min at 36000 g at 4° C. Each pellet was then resuspended in 15 ml 3 mM MgCl2, 1 mM EDTA, 50 mM Tris pH 7.4 and protein determined with BioRad Protein Assay (BioRad) using a standard curve of BSA (50-250 μg/ml). The membrane suspensions were aliquoted and stored at −80° C.
The FAAH activity was determined using AEA (labelled with 3H in the ethanolamine part of the molecule) as substrate and measuring the 3H-ethanolamine formed. Reaction mix (total volume of 200 up contained: 2 μM AEA (2 μM AEA+5 nM 3H-AEA), 0.1% fatty acid free BSA, 5 μg protein, in 1 mM EDTA, 10 mM Tris pH 7.6 and 10 μM or 0.1 μM compounds. Stock solutions of the compounds to test (10 mM) were prepared in 100% DMSO and the DMSO concentration in the assay was 0.1%. After a 15 min preincubation period at 37° C., reaction was started by the addition of the substrate solution ([…]). Reaction was carried out for 10 min before termination by the addition of 400 μl activated charcoal suspension (8 g charcoal in 32 ml 0.5 M HCl in continuous agitation). After a 30 min incubation period at room temperature with agitation, charcoal was sedimented by centrifugation in microfuge (10 min at 13000 rpm). 200 μl of the supernatant were added to 800 μl Optiphase Supermix scintillation cocktail previously distributed in 24-well plates. Counts per minute (cpm) were determined in Microbeta TriLux scintillation counter (10 min counting or until s=2).
In each assay blanks (no protein, usually below 200 cpm) and controls (no compound) were present. The results are reported in Table 1 as % of control after blank subtraction.

SMILES | In Vitro FAAH activity, 100 nM
N#Cc1ccc(Oc2ccc(-c3ncn(C(=O)N4CCOCC4)n3)cc2)cc1 [Compound 141, 4-(4-(1-(morpholine-4-carbonyl)-1H-1,2,4-triazol-3-yl)phenoxy)benzonitrile] | 15.9 % of control
COc1ccc(-c2ncn(C(=O)N(C)c3ccc(F)cc3)n2)cc1 [Compound 66, N-(4-fluorophenyl)-3-(4-methoxyphenyl)-N-methyl-1H-1,2,4-triazole-1-carboxamide] | 80.9 % of control
CC(C)(C)N(Cc1ccccc1)C(=O)n1cnc(-c2ccc(Cl)cc2)c1 [Compound 252, N-benzyl-N-tert-butyl-4-(4-chlorophenyl)-1H-imidazole-1-carboxamide] | 83.6 % of control
CN(C(=O)n1nnc2cc(-c3cccc(C#N)c3)ccc21)C1CCCCC1 [Compound 95, 5-(3-cyanophenyl)-N-cyclohexyl-N-methyl-1H-benzo[d][1,2,3]triazole-1-carboxamide] | 0.7 % of control
CN(Cc1ccccc1)C(=O)n1cnc(-c2ccc3ccccc3c2)n1 [Compound 190, N-benzyl-N-methyl-3-(naphthalen-2-yl)-1H-1,2,4-triazole-1-carboxamide] | 20.7 % of control
CN(C(=O)n1cnc(-c2cccs2)n1)c1ccccc1 [Compound 180, N-methyl-N-phenyl-3-(thiophen-2-yl)-1H-1,2,4-triazole-1-carboxamide] | 57.5 % of control
O=C(OCCN(C(=O)n1cnc(-c2ccccc2)c1)C1=CCCC1)n1cnc(-c2ccccc2)c1 [Compound 234, 2-(N-cyclopentenyl-4-phenyl-1H-imidazole-1-carboxamido)ethyl 4-phenyl-1H-imidazole-1-carboxylate] | 78.2 % of control
CN(C(=O)n1nnc2ccccc21)C1CCCC1 [Compound 266, N-cyclopentyl-N-methyl-1H-benzo[d][1,2,3]triazole-1-carboxamide] | 0.2 % of control
Br.CN(C(=O)n1cnc(-c2ccc(OCCN3CCCCC3)cc2)c1)c1ccccc1 [Compound 224, N-methyl-N-phenyl-4-(4-(2-(piperidin-1-yl)ethoxy)phenyl)-1H-imidazole-1-carboxamide hydrobromide] | 90 % of control
CN(C(=O)n1nnc2cc(-c3cccc(C(=O)O)c3)ccc21)C1CCCCC1 [Compound 107, 3-(1-(cyclohexyl(methyl)carbamoyl)-1H-benzo[d][1,2,3]triazol-5-yl)benzoic acid] | 13.5 % of control
O=C(N1CCCCCC1)n1nnc2ccccc21 [Compound 172, azepan-1-yl(1H-benzo[d][1,2,3]triazol-1-yl)methanone] | 0.3 % of control
CN(C(=O)n1nnc2ccc(-c3cccc(C(N)=O)c3)cc21)C1CCCCC1 [Compound 109, 6-(3-carbamoylphenyl)-N-cyclohexyl-N-methyl-1H-benzo[d][1,2,3]triazole-1-carboxamide] | 0 % of control
CN(C(=O)n1cncn1)c1ccccc1 [Compound 7, N-methyl-N-phenyl-1H-1,2,4-triazole-1-carboxamide] | 17 % of control
Cl.O=C(N1CCN(Cc2ccccc2)CC1)n1cnc(-c2ccc(OCc3ccccc3)cc2)n1 [Compound 125, (3-(4-(benzyloxy)phenyl)-1H-1,2,4-triazol-1-yl)(4-benzylpiperazin-1-yl)methanone hydrochloride] | 53.5 % of control
O=C(N1CCC(c2ccccc2)CC1)n1nnc2ccccc21 [Compound 94, (1H-benzo[d][1,2,3]triazol-1-yl)(4-phenylpiperidin-1-yl)methanone] | 0 % of control
CCOC(=O)N1CCN(C(=O)n2nnc3ccccc32)CC1 [Compound 177, ethyl 4-(1H-benzo[d][1,2,3]triazole-1-carbonyl)piperazine-1-carboxylate] | 6.9 % of control
Cl.O=C(N1CCN(C2CCCCC2)CC1)n1cnc(-c2ccc(Cl)cc2)n1 [Compound 212, (3-(4-chlorophenyl)-1H-1,2,4-triazol-1-yl)(4-cyclohexylpiperazin-1-yl)methanone hydrochloride] | 0.8 % of control
CN(C(=O)n1nnc2ccc(-c3ccc(F)cc3)cc21)C1CCCCC1 [Compound 106, N-cyclohexyl-6-(4-fluorophenyl)-N-methyl-1H-benzo[d][1,2,3]triazole-1-carboxamide] | 2.3 % of control
NC(=O)c1ccc(Oc2cccc(-c3ncn(C(=O)N4CCc5ccccc5C4)n3)c2)cc1 [Compound 207, 4-(3-(1-(1,2,3,4-tetrahydroisoquinoline-2-carbonyl)-1H-1,2,4-triazol-3-yl)phenoxy)benzamide] | 31.6 % of control
CN(C(=O)n1cnc(-c2cccc(O)c2)c1)C1CCCC1 [Compound 262, N-cyclopentyl-4-(3-hydroxyphenyl)-N-methyl-1H-imidazole-1-carboxamide] | 7.5 % of control
COc1ccccc1-c1cn(C(=O)N(C)C2CCCCC2)cn1 [Compound 271, N-cyclohexyl-4-(2-methoxyphenyl)-N-methyl-1H-imidazole-1-carboxamide] | 55.8 % of control
C[C@@H]1CN(C(=O)n2nnc3ccccc32)C[C@H](C)O1 [Compound 194, (1H-benzo[d][1,2,3]triazol-1-yl)((2S,6R)-2,6-dimethylmorpholino)methanone] | 64.2 % of control
O=C(N1CCN(c2ccc(F)cc2)CC1)n1cnc(-c2ccc(Cl)cc2)c1 [Compound 223, (4-(4-chlorophenyl)-1H-imidazol-1-yl)(4-(4-fluorophenyl)piperazin-1-yl)methanone] | 1.1 % of control
COc1cccc(CN(C)C(=O)n2nnc3ccccc32)c1 [Compound 119, N-(3-methoxybenzyl)-N-methyl-1H-benzo[d][1,2,3]triazole-1-carboxamide] | 0 % of control

same assay, conditions: 10 uM test compound, low value = strong inhibitor

SMILES | In Vitro FAAH activity, 10 uM
CN(C(=O)n1ccc(-c2ccccc2)n1)c1ccccc1 [Compound 12, N-methyl-N,3-diphenyl-1H-pyrazole-1-carboxamide] | 86 % of control
O=C(N1CCCc2ccccc21)n1cnc(-c2ccccc2)c1 [Compound 37, (3,4-dihydroquinolin-1(2H)-yl)(4-phenyl-1H-imidazol-1-yl)methanone] | 51.7 % of control
CN(C(=O)n1cncn1)c1ccccc1 [Compound 7, N-methyl-N-phenyl-1H-1,2,4-triazole-1-carboxamide] | 0 % of control
O=C(N1CCOCC1)n1cnc(-c2ccccc2)c1 [Compound 3, morpholino(4-phenyl-1H-imidazol-1-yl)methanone] | 4.8 % of control

same assay, conditions: rat brain membranes, compound at 100 nM, low value = strong inhibitor

SMILES | In Vitro 100 nM (FAAH activity, % of control)
CC1(C)COCN1C(=O)n1cnc(-c2ccc(Cl)cc2)c1Cl [Compound 280, (5-chloro-4-(4-chlorophenyl)-1H-imidazol-1-yl)(4,4-dimethyloxazolidin-3-yl)methanone] | 111.8 % of control
